Reference: patent EP0092121A1, “Methods and compositions for treating gastro-intestinal ulcer diesease” (BOARD OF REGENTS THE UNIVERSITY OF TEXAS SYSTEM, priority 1982, dated 1983)

Tested on: acute pylorus-ligated rat preparation
Assay: In vivo protection against acid-induced gastric damage in HCl-challenged rats (gross examination, gastric hemoglobin)
Conditions: individual phospholipid, gastric sample hemoglobin after 0.6 N HCl
Procedure: Applicants directly investigated this question in an acute pylorus-ligated rat preparation, in which test agents could be administered directly into the stomach by way of an esophageal cannula. Rats were fasted overnight and maintained under Nembutal anesthesia throughout the study period. The rats were divided into two groups (3 rats/grp); one group which was designated "surfactant treated" received 0.5 ml of a liposomal suspension in saline of the following phospholipids: […], 15 µg of DPPE, DPPG, DPPI and Sphingomyelin; and the second group (controls) was intragastrically injected with 0.5 ml of saline. Five minutes later both groups received 1 ml of an ulcerogenic dose of 0.6 N HCI. The anesthetized animals were left undisturbed for 45 minutes, after which they were sacrificed, and the stomachs excised, opened along the greater curvature and examined.
In another series of in vivo experiments, the individual phospholipids: dipalmitoyl lecithin, dipalmitoyl phosphatidyl ethanolamine, and phosphatidyl choline were tested for anti-ulcer activity. The experiments were performed as described above. In addition, immediately before the rat was sacrificed, a gastric sample was withdrawn for hemoglobin analysis. […] Sample anti-ulcer activity was measured as a percent of hemoglobin count relative to hemoglobin detected from animals pretreated with the combination of 135 µg DPL, 15 µg of DPPE, DPPG, DPPI and sphingomyelin mixture.
Anti-ulcer activity was inversely proportional,to the amount of hemoglobin detected. Table I tabulates the relative anti-ulcer activity of the individually tested phospholipids.

Compound | ACTIVITY (anti-ulcer activity, hemoglobin count relative to mixture) (15 µg) | ACTIVITY (anti-ulcer activity, hemoglobin count relative to mixture) (135 µg)
CCCCCCCCCCCCCCCC(=O)OCC(COP(=O)([O-])OCC[N+](C)(C)C)OC(=O)CCCCCCCCCCCCCCC (stereo not drawn) [Dipalmitoyl lecithin, dipalmitoyl lecithin] | 95% | 90%
phosphatidylcholine [Phosphatidyl choline] | 80% | 80%
CCCCCCCCCCCCCCCC(=O)OCC(COP(=O)(O)OCCN)OC(=O)CCCCCCCCCCCCCCC (stereo not drawn) [Dipalmitoyl phosphatidyl ethanolamine, dipalmitoyl phosphatidyl ethanolamine] | 75-80% | 70%
